What all share (test): NCI-60 cell line screen, 48 h
Experiment [1] has as its system HCT-15 colon.
The test system of experiment [2] is HL-60(TB) leukemia.
Experiment [3] relates to HS 578T breast.
Experiment [4] concerns IGROV1 ovarian.
In experiment [5] the test system is KM12 colon.
Experiment [6] has as its system M14 melanoma.
The subject of experiment [7] is MCF7 breast.
For experiment [8], the system named is MDA-N.
The subject of experiment [9] is MOLT-4 leukemia.
Experiment [10] has as its system SF-539 CNS.
Experiment [11] deals with SK-MEL-2 melanoma.
Experiment [12] deals with SK-MEL-5 melanoma.
Experiment [13] concerns SNB-19 CNS.
Experiment [14] has as its system T-47D breast.
The test system of experiment [15] is UACC-257 melanoma.
The test system of experiment [16] is UACC-62 melanoma.
Experiment [17] relates to TK-10 renal.

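A five-concentration, 48-hour dose response in 96-well plates underlies each endpoint, interpolated linearly between surrounding concentrations. Definition used: TGI = concentration required for complete inhibition of growth.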

As to `O=C(Nc1cccc(NC(=O)C(=O)C2CCC3=C(Sc4ccccc4N3)C2=O)n1)C(=O)C1CCC2=C(Sc3ccccc3N2)C1=O` (stereo not given), the TGI in experiment [1], in experiment [2], in [3], in experiment [4], in [5] and in [6] was greater than 100 µM in each case. The TGI in [7] is greater than 100 µM; in experiment [8], greater than 100 µM; in experiment [9], greater than 100 µM; in experiment [10], 55.1 µM; in [11], greater than 100 µM; in experiment [12] it was greater than 100 µM. For the same molecule, the TGI in experiment [13], in experiment [14], in experiment [15] and in experiment [16] was greater than 100 µM each time.

In the case of `NC(=O)NC(=O)CCC(NS(=O)(=O)c1ccccc1)C(=O)NC(N)=O` (stereo not given), the TGI in experiment [1], in [2], in experiment [3], in [4], in experiment [5] and in [6] was greater than 100 µM each time. Also, the TGI in experiment [7], in experiment [8], in experiment [9], in experiment [10], in experiment [11] and in [12] was greater than 100 µM each time. In addition, the TGI in experiment [13], in [14], in experiment [17], in experiment [15] and in [16] was greater than 100 µM throughout.

In the case of `Cc1c(C#N)c(N)[nH]c(=S)c1C#N`, the TGI in experiment [1], in experiment [2], in experiment [3], in experiment [4], in experiment [5] and in [7] was greater than 100 µM each time. The TGI in experiment [8], in [9], in [10], in [11], in experiment [12] and in [13] was greater than 100 µM throughout. Moreover, the TGI in experiment [14], in experiment [17], in [15] and in [16] was greater than 100 µM in each case.

As for `Cc1ccccc1N=CN(C)C`, the TGI in experiment [1] is greater than 100 µM; in experiment [2], 39 µM; in experiment [3], greater than 100 µM; in [4] it was greater than 100 µM; in [6], greater than 100 µM; in experiment [7], greater than 100 µM. For the same molecule, the TGI was greater than 100 µM in experiment [8]; greater than 100 µM in [9]; greater than 100 µM in experiment [10]; greater than 100 µM in experiment [11]; 43.6 µM in experiment [12]; greater than 100 µM in experiment [13]. Moreover, the TGI in [14] is greater than 100 µM; in [17], greater than 100 µM; in experiment [15] it was 71.1 µM; in [16], greater than 100 µM.

In the case of `CC(C)/C(Cl)=N/OC(=O)Nc1cccc(C(F)(F)F)c1`, the TGI in [1] was 3.39 µM; in [2] it was 2.22 µM; in experiment [3] it was greater than 69.4 µM; in experiment [4], 26.6 µM; in experiment [5], 29.8 µM; in experiment [6], 13.3 µM. Further, the TGI came to 16.5 µM in experiment [7]; 23.7 µM in experiment [8]; 4.42 µM in experiment [9]; 32.5 µM in [11]; 21.3 µM in experiment [12]; 34 µM in experiment [13]. Moreover, the TGI in experiment [14] was 14.1 µM; in [17], 12.7 µM; in experiment [15] it was 29.5 µM; in experiment [16], 27.6 µM.

Consider `C=C[C@]1(O)CCC[C@]2(C)C(=O)CCC12C` (stereo not given in full), for which the TGI in experiment [1], in [2], in [3], in experiment [4], in [5] and in [6] was greater than 100 µM in each case. The TGI in experiment [7], in experiment [8], in [9], in [10], in experiment [11] and in [12] was greater than 100 µM in each case. In addition, the TGI in experiment [13], in experiment [14], in [15] and in experiment [16] was greater than 100 µM in each case.

Regarding `CC(=O)OCc1ccc2oc(=O)c(C(=O)Oc3cccc(Cl)c3)cc2c1`, the TGI is greater than 100 µM in [1]; greater than 100 µM in experiment [3]; greater than 100 µM in experiment [4]; greater than 100 µM in experiment [5]; greater than 100 µM in experiment [6]; 61.6 µM in experiment [7]. In addition, the TGI in experiment [8], in experiment [9], in [10], in experiment [11], in [12] and in experiment [13] was greater than 100 µM each time. The TGI is 41 µM in experiment [14], 91.6 µM in experiment [17], greater than 100 µM in experiment [15] and 34.2 µM in [16].

Turning to `CCC(=O)C1(N2CCOCC2)CCN(CCCC(=O)c2ccc(F)cc2)CC1`, the TGI in [1], in experiment [2], in experiment [3], in experiment [4], in [5] and in [6] was greater than 100 µM throughout. Besides, the TGI in [7], in experiment [8], in experiment [9], in [10], in [11] and in [12] was greater than 100 µM throughout. Besides, the TGI in experiment [13], in experiment [14], in experiment [17] and in [16] was greater than 100 µM in each case.

Regarding `CC1(C)C=Cc2c(cc3oc4ccc5c(c4c(=O)c3c2O)C=CC(C)(C)O5)O1`, the TGI in experiment [1], in [3], in experiment [4], in experiment [5], in experiment [6] and in [7] was greater than 100 µM throughout. Further, the TGI in experiment [8], in experiment [9], in experiment [10], in experiment [11], in [12] and in [13] was greater than 100 µM in each case. Further, the TGI in experiment [14], in experiment [17], in experiment [15] and in experiment [16] was greater than 100 µM in each case.

The record behind these values is PubChem BioAssay (NCI).
